Reference: patent publication US20220194935A1, “PHENETHYL SUBSTITUTED IMIDAZO[4,5-C]QUINOLINE COMPOUNDS WITH AN N-1 BRANCHED GROUP” (3M INNOVATIVE PROPERTIES COMPANY, priority 2019, published 2022)

Experiments:
[1] = biological target: T1, human TLR7 (Homo sapiens, UniProt Q9NYK1); experiment: TLR Activation and Specificity, HEK-BLUE-hTLR7 SEAP reporter cells; format: cell-based; conditions: 16-20 hours, at least 2× vehicle control, tested 0.01-30 micromolar
T1 construct: host or cells: HEK293 (HEK-BLUE-hTLR7)
T1 sequence (Q9NYK1 27-1049): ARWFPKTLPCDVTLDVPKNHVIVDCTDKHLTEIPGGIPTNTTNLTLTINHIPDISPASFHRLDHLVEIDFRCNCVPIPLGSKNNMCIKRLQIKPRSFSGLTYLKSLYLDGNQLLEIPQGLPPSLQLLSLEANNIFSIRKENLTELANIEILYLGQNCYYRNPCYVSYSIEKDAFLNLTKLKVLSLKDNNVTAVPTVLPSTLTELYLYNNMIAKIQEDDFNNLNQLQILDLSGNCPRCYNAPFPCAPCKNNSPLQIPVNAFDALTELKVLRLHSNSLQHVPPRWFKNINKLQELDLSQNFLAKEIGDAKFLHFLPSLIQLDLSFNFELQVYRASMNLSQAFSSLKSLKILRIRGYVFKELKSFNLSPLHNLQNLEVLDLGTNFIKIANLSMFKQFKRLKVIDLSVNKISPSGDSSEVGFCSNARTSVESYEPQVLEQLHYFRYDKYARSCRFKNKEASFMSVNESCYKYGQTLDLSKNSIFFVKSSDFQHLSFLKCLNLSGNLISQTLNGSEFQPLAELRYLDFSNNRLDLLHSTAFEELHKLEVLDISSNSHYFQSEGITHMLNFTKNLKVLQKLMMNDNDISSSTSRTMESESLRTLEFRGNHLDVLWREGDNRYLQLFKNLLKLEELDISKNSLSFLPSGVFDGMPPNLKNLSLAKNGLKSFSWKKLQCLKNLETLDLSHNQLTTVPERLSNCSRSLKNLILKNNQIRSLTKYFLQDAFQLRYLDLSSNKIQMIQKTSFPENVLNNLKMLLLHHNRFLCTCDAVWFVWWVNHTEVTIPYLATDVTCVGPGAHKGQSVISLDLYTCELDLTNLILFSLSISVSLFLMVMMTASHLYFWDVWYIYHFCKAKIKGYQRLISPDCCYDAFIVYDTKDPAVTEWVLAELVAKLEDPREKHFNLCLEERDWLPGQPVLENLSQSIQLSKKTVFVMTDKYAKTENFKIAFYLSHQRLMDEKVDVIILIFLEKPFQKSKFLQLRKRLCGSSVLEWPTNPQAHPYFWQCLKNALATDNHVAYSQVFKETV
Protocol: (§1) HEK-BLUE-hTLR7 or hTLR8 reporter cells were obtained from InvivoGen, San Diego, Calif. According to the manufacturer's description, these reporter cells were prepared by co-transfection of HEK293 cells with an inducible secreted embryonic alkaline phosphatase (SEAP) reporter gene and either the human TLR7 or TLR8 gene. The SEAP reporter gene was placed under the control of an IFN-β minimal promoter fused to five NF-κB and AP-1-binding sites. In the presence of a TLR ligand, activation of NF-κB and AP-1 occurs, resulting in a corresponding increase in SEAP levels.
(§2) In the assay, the HEK cells were grown and maintained using standard cell culture techniques in a growth medium that contained Dulbecco's Modified Eagle Medium (ThermoFisher Scientific Incorporated, Waltham, Mass.) supplemented with 1% penicillin/streptomycin and 10% heat-inactivated Gibco fetal bovine serum (ThermoFisher Scientific). Each compound was solubilized in DMSO to create a 3 millimole (mM) stock solution. The stock solution was then further diluted with the growth medium to prepare serial dilutions. Each test compound was tested at a concentration of 30, 10, 3.3, 1.1, 0.37, 0.12, 0.04, and 0.01 micromolar using a 96-well format with 5×10^4 cells and 200 microliters of growth medium per well.
(§3) For each compound, hTLR7, hTLR8, and their respective null control HEK cells were screened. DMSO serially diluted into the growth medium served as the vehicle control. Cell culture supernatants containing the SEAP reporter were collected after an incubation period of 16-20 hours in a cell culture incubator (37° C. and 5% CO2), and either analyzed immediately or stored at −80° C. SEAP levels were measured using the colorimetric enzyme assay (QUANTI-BLUE (InvivoGen) according to manufacturer's instructions.
(§4) Specifically, the minimum effective concentration of each compound (micromolar) was determined as the lowest concentration of the compound that produced a SEAP expression response at least 2× greater than that observed with the vehicle control wells.

[2] = biological target: T2, human TLR8 (Homo sapiens, UniProt Q9NR97); experiment: TLR Activation and Specificity, HEK-BLUE-hTLR8 SEAP reporter cells; format: cell-based; conditions: 16-20 hours, at least 2× vehicle control, tested 0.01-30 micromolar
T2 construct: host or cells: HEK293 (HEK-BLUE-hTLR8)
T2 sequence (Q9NR97 27-1041): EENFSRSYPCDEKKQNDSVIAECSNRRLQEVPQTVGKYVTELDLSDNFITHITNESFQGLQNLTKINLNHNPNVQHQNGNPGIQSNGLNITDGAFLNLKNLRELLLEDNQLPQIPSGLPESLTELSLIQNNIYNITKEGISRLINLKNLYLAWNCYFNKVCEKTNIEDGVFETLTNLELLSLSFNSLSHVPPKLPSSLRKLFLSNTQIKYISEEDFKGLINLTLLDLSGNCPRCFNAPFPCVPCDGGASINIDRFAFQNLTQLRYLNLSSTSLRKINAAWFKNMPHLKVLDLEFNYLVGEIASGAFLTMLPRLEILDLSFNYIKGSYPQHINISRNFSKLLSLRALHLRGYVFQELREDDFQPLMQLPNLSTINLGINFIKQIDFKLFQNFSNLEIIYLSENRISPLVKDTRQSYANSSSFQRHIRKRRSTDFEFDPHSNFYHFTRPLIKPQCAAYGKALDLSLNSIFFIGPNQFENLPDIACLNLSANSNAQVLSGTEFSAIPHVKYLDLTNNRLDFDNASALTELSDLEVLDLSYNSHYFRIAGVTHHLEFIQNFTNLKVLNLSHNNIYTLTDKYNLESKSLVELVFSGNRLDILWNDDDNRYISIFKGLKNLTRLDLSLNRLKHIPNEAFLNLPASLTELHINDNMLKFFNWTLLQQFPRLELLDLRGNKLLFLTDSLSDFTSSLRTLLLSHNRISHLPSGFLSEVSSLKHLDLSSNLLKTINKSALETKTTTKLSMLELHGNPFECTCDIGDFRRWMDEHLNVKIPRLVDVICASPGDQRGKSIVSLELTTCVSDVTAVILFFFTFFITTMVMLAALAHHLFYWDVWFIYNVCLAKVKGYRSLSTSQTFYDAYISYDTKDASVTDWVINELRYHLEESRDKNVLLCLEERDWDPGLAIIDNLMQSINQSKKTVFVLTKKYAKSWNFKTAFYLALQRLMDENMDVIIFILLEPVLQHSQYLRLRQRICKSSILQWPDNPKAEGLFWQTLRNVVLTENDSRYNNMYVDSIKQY
Protocol: as §1, §2, §3, §4

Row | MEC to Produce TLR Activation, TLR 7 [1] | MEC to Produce TLR Activation, TLR 8 [2] | SMILES
1 | 1.1 µM | >30 µM | Nc1nc2ccccc2c2c1ncn2CCc1ccccc1 [Comparative Example 1, 1-phenethyl-1H-imidazo[4,5-c]quinolin-4-amine, reference compound]
2 | 0.37 µM | >30 µM | C[C@H](Cc1ccccc1)n1cnc2c(N)nc3ccccc3c21 [Example 1, 1-[(1R)-1-methyl-2-phenyl-ethyl]imidazo[4,5-c]quinolin-4-amine]
3 | ≤0.01 µM | 10 µM | CCCC[C@H](Cc1ccccc1)n1cnc2c(N)nc3ccccc3c21 [Example 2, 1-[(1R)-1-benzylpentyl]imidazo[4,5-c]quinolin-4-amine]
4 | 1.1 µM | >30 µM | COC[C@@H](Cc1ccccc1)n1cnc2c(N)nc3ccccc3c21 [Example 3, 1-[(1R)-1-benzyl-2-methoxy-ethyl]imidazo[4,5-c]quinolin-4-amine]
5 | 1.1 µM | >30 µM | CCOC[C@@H](Cc1ccccc1)n1cnc2c(N)nc3ccccc3c21 [Example 4, 1-[(1R)-1-benzyl-2-ethoxy-ethyl]imidazo[4,5-c]quinolin-4-amine]
6 | ≤0.01 µM | 10 µM | COC[C@H](Cc1ccccc1)n1cnc2c(N)nc3ccccc3c21 [Example 5, 1-[(1S)-1-benzyl-2-methoxy-ethyl]imidazo[4,5-c]quinolin-4-amine]
7 | ≤0.01 µM | 3.3 µM | CCOC[C@H](Cc1ccccc1)n1cnc2c(N)nc3ccccc3c21 [Example 6, 1-[(1S)-1-benzyl-2-ethoxy-ethyl]imidazo[4,5-c]quinolin-4-amine]

Row | SMILES | MEC to Produce TLR Activation, TLR 7 [1] | MEC to Produce TLR Activation, TLR 8 [2]
8 | CCCCOc1ccc(C[C@@H](CCCC)n2cnc3c(N)nc4ccccc4c32)cc1 [Example 7, 1-[(1R)-1-[(4-butoxyphenyl)methyl]pentyl]imidazo[4,5-c]quinolin-4-amine] | ≤0.01 µM | 10 µM
